Experimental data from patent publication US20180243421A1, “IMMUNOSTIMULATING AGENT” (AJINOMOTO CO., INC., priority 2015, published 2018).

Assays:
[1] = Dispersibility study: turbidity in cyclodextrin-added saline; type: physicochemical; conditions: Example 11; SZ62 0.256 μmol in 1 mL; absorbance 650 nm, ratio to kaolinite
Description: N-hexadecanoylagmatine (SZ62: compound wherein group corresponding to R^7 in formula (II) is C15 alkyl group) (0.256 μmol) was separated in a 2 mL tube containing zilconia beads, 1 mL of 5% αCD-added saline or 10% 2-hydroxypropyl-β-cyclodextrin (hereinafter to be also simply referred to as HP-β-CD)-added saline was added and the mixture was stirred. Thereafter, the absorbance (OD Value=650 nm) was measured by a microplate reader, and the turbidity was calculated as an index of dispersibility. The measurement method of the turbidity was as follows.
Measurement Method of Turbidity
SZ62 (0.256 μmol) was dispensed to a 2 mL tube containing zirconia beads, 5% αCD-added saline or 10% HP-β-CD-added saline (1 mL) was added, and the mixture was vigorously stirred three times under conditions of one time for 3.15 seconds at 6000 rpm. The mixture was dispensed by 200 μL to a 96 well plate, and the absorbance (OD Value=650 nm) was measured by a microplate reader. As a control, kaolinite (1 mg) was dissolved in distilled water (1 L), and the absorbance (OD Value=650 nm) was measured by a microplate reader. The absorbance thereof (OD Value=650 nm) was defined to be turbidity: 1, and the turbidity of each sample was calculated from the ratio with the measured value of kaolinite.

[2] = system: anti-OVA-specific IgG1 subclass antibody; test: Adjuvant activity: anti-OVA-specific IgG1 subclass antibody in serum after secondary immunization (Examples 1, 5, 7, 8; ELISA absorbance); type: in vivo, BALB/c mice
In short: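 Serum was taken two weeks after the secondary immunization and assayed by ELISA on plates coated with 5 μg/ml OVA. Detection used biotinylated anti-mouse IgG1, then anti-biotin-HRP and TMB. The reaction was stopped with 2N H2SO4 and read as absorbance at 450 nm.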

## CCCCCCCCCCCCCCCC(=O)NC(=N)NCCCCN [SZ62, N-hexadecanoylagmatine]
[1]
  turbidity after addition of 10% HP-β-CD-added saline and stirring, versus turbidity after addition of 5% αCD-added saline: significantly lower
[2]; Example 1, dorsal-subcutaneous, OVA 10 μg, SZ62 0.256 μmol in 5% αCD saline, Alum 2.56 μmol, serum two weeks from secondary immunization
  anti-OVA-specific IgG1 subclass antibody production as compared to the OVA single administration group: significantly increased
[2]; Example 1, same test as E1
  adjuvant activity (IgG1) compared with Alum: equivalent to that of Alum
[2]; Example 5
  adjuvant activity (IgG1) compared with Alum: equivalent to or not less than that of Alum
[2]; Example 5, same manner as Example 1
  anti-OVA-specific IgG1 subclass antibody production as compared to the OVA single administration group: significantly increased
[2]; Example 8
  adjuvant activity (IgG1) compared with Alum: equivalent to or not less than that of Alum
[2]; Example 8, same manner as Example 7
  anti-OVA-specific IgG1 subclass antibody production as compared to the OVA single administration group: significantly increased
